Tested on: paternal Ube3aYFP protein
Experiment: Paternal Ube3aYFP protein levels by immunofluorescent imaging in mouse primary hippocampal neurons
Type: cell-based
Settings: treated 7 DIV, imaged 10 DIV; ASOs 1, 5, 15 μM, Topotecan 300 nM; compared to ASO-C and Veh
Method: Based on these findings, mouse-specific ASOs were designed to target a specific region in the Ube3a-AS transcript (Table 6 and FIG. 2A). To test whether ASOs targeting this region reactivate expression of the paternal Ube3a allele, primary hippocampal neuronal cultures were generated from the Ube3aYFP reporter mouse model (Ube3a+/YFP; FIG. 2B) and treated at 7 days in vitro (DIV) with a control ASO [ASO-C (10 uM, n=3)], three ASOs targeting Ube3a-AS [ASO-1.1, ASO-1.2, ASO-3.1 (1 μM, 5 μM, and 15 μM, n=3)], and ASO-B (1 μM, 5 μM, and 15 μM, n=3)]. As a positive control, neurons were also treated with Topotecan [Topo (300 nM, n=3)] and a negative vehicle control [Veh (1%, n=3); FIG. 2 C]. Three days post-treatment (10 DIV), immunofluorescent imaging was used to quantify paternal Ube3aYFP protein levels in individual cells.
Primary cultures of hippocampal neurons were generated from P0-P1 pups (Ube3a^m+/p+ and Ube3a^m+/pYFP) by crossing Ube3a^m+/pYFP males with wild-type C57BL/6J females. Genotypes were determined using methods described previously. Briefly, hippocampal neurons were cultured in Neurobasal A medium (Invitrogen, San Diego, Calif.) supplemented with B27 (Invitrogen) and penicillin/streptomycin (Invitrogen) on 96-well optical bottom plates coated with poly-D-Lysine (152028, Thermo Fisher Scientific) and laminin (23017-01, Thermo Fisher Scientific). […]

With “C^O*C^O*A^O*C^O*A^O*t*t*t*c*c*t*c*t*c*a*U^O*G^O*G^O*A^O*A^O [ASO-1.1]” the “paternal Ube3aYFP protein levels” value was “level similar to that achieved by the optimal concentration of Topotecan”.
